Patent US8288424B2, “Substituted tetrahydroimidazopyridine compounds and the use thereof in the treatment of pain and other conditions” (Gruenenthal GmbH, priority 2008, dated 2012)

Target: T1, KCNQ2/3 channels (Homo sapiens, UniProt O43525+O43526)
T1 construct: expressed in transfected cells; host or cells: CHO-K1
Experiment: Fluorescence assay using a voltage-sensitive dye
Assay type: cell-based
Settings: CHO-K1 cells expressing KCNQ2/3 channels, agonistic activity; for activation at 10 µM: 10 μmol test substance, read-out: % Stimulation [10 μmol] Average
Experimental: Fluorescence Assay Using a Voltage-Sensitive Dye
Human CHO-K1 cells expressing KCNQ2/3 channels are cultivated adherently at 37° C., 5% CO2 and 95% humidity in cell culture bottles (e.g. 80 cm^2 TC flasks, Nunc) with MEM Alpha Medium (1×, liquid, Invitrogen, #22571), 10% foetal calf serum (FCS) (Invitrogen, #10270-106, heat-inactivated) and the necessary selection antibiotics. Before being spread out for the measurements, the cells are washed with a 1×DPBS buffer without Ca^2+/Mg^2+ (e.g. Invitrogen, #14190-094) and detached from the bottom of the culture vessel by means of Accutase (PAA Laboratories, #L11-007) (incubation with Accutase for 15 min at 37° C.). The cell count then present is determined using a CASY™ cell counter (TCC model, Schärfe System) in order subsequently to apply 20,000 cells/well/100 μl of the described nutrient medium to 96-well measuring plates of the Corning™ CellBIND™ type (flat clear-bottom black polystyrene microplates, #3340). Incubation is then carried out for one hour at room temperature, without gassing or adjusting the humidity, followed by incubation for 24 hours at 37° C., 5% CO2 and 95% humidity.
The voltage-sensitive fluorescent dye from the Membrane Potential Assay Kit (Red bulk format part R8123 for FLIPR, Molecular Devices™) is prepared by dissolving the contents of a vessel of Membrane Potential Assay Kit Red Component A in 200 ml of extracellular buffer (ES buffer, 120 mM NaCl, 1 mM KCl, 10 mM HEPES, 2 mM CaCl2, 2 mM MgCl2, 10 mM glucose; pH 7.4). After removal of the nutrient medium, the cells are washed with 200 μl of ES buffer, then covered with a layer of 100 μl of the dye solution prepared above and incubated for 45 min at room temperature with exclusion of light.
The fluorescence measurements are carried out with a BMG Labtech FLUOstar™ or BMG Labtech POLARstar™ instrument (525 nm excitation, 560 nm emission, bottom-read mode). After incubation of the dye, 50 μl of the substances to be tested in the desired concentrations, or 50 μl of ES buffer for control purposes, are introduced into separate cavities of the measuring plate and incubated for 30 min at room temperature whilst being shielded from light. The fluorescence intensity of the dye is then measured for 5 min and the fluorescence value F1 of each well is thus determined at a given, constant time. 15 μl of a […] KCl solution ([…]) are then added to each well. The change in fluorescence is subsequently measured until all relevant measured values have been obtained (mainly 5-30 min). At a given time after KCl application, a fluorescence value F2 is determined, in this case at the time of the fluorescence peak.
For calculation, the fluorescence intensity F2 is compared with the fluorescence intensity F1, and the agonistic activity of the target compound on the potassium channel is determined therefrom. F2 and F1 are calculated as follows:
[formula] In order to determine whether a substance has an agonistic activity,
[formula] for example, can be compared with
[formula] of control cells.
[formula] is determined by adding to the reaction batch only the buffer solution instead of the substance to be tested, determining the value F1K of the fluorescence intensity, adding the potassium ions as described above and measuring a value F2K of the fluorescence intensity. Then F2K and F1K are calculated as follows:
[formula] A substance has an agonistic activity on the potassium channel when
[formula] is greater than
[formula] Independently of the comparison of
[formula] it is also possible to conclude that a target compound has an agonistic activity if an increase in
[formula] is to be observed as the dosage of the target compound increases. Calculations of EC50 and IC50 values are carried out with the aid of Prism 4 software (GraphPad Software™).

SMILES: O=C(c1cn2c(n1)CCC(c1cccc(C(F)(F)F)c1)C2)N1CCN(c2ccccc2F)CC1 (stereo not shown) [Compound 32, (4-(2-Fluorophenyl)piperazin-1-yl)(6-(3-(trifluoromethyl)phenyl)-5,6,7,8-tetrahydroimidazo[1,2-a]pyridin-2-yl)methanone]
- activation at 10 µM: 21.2%

SMILES: COc1cccc(C2CCc3nc(C(=O)N4CCC(Cc5ccccc5)CC4)cn3C2)c1 (stereo not shown) [Compound 50, (4-Benzylpiperidin-1-yl)(6-(3-methoxyphenyl)-5,6,7,8-tetrahydroimidazo[1,2-a]pyridin-2-yl)methanone]
- activation at 10 µM: 25.7%

SMILES: CCOC(=O)C1CCN(C(=O)c2cn3c(n2)CCC(c2ccc(Oc4ccccc4)cc2)C3)CC1 (stereo not shown) [Compound 20, Ethyl 1-(6-(4-phenoxyphenyl)-5,6,7,8-tetrahydroimidazo[1,2-a]pyridine-2-carbonyl)piperidine-4-carboxylate]
- EC50: 11.6 µM

SMILES: O=C(c1cn2c(n1)CCC(c1ccc(F)c(F)c1)C2)N1CCN(c2cccc(C(F)(F)F)c2)CC1 (stereo not shown) [Compound 79, (6-(3,4-Difluorophenyl)-5,6,7,8-tetrahydroimidazo[1,2-a]pyridin-2-yl)(4-(3-(trifluoromethyl)phenyl)piperazin-1-yl)methanone]
- activation at 10 µM: 125%

SMILES: CCc1ccc(C2CCc3nc(C(=O)NCCc4ccccc4)cn3C2)cc1 (stereo not shown) [Compound 40, 6-(4-Ethylphenyl)-N-phenethyl-5,6,7,8-tetrahydroimidazo[1,2-a]pyridine-2-carboxamide]
- activation at 10 µM: 16.6%

SMILES: CC(=O)N1CCN(C(=O)c2cn3c(n2)CCC(c2ccc(Oc4ccccc4)cc2)C3)CC1 (stereo not shown) [Compound 23, 1-(4-(6-(4-Phenoxyphenyl)-5,6,7,8-tetrahydroimidazo[1,2-a]pyridine-2-carbonyl)piperazin-1-yl)ethanone]
- EC50: 5.81 µM

SMILES: Cc1cc(C2CCc3nc(C(=O)NCCC4CCCCC4)cn3C2)ccc1F (stereo not shown) [Compound 88, N-(2-Cyclohexylethyl)-6-(4-fluoro-3-methylphenyl)-5,6,7,8-tetrahydroimidazo[1,2-a]pyridine-2-carboxamide]
- activation at 10 µM: 47.9%

SMILES: COc1ccc(C2CCc3nc(C(=O)N4CCC(Cc5ccccc5)CC4)cn3C2)cc1 (stereo not shown) [Compound 76, (4-Benzylpiperidin-1-yl)(6-(4-methoxyphenyl)-5,6,7,8-tetrahydroimidazo[1,2-a]pyridin-2-yl)methanone]
- activation at 10 µM: 65.1%

SMILES: Cc1ccc(N2CCN(C(=O)c3cn4c(n3)CCC(c3ccc(F)c(C)c3)C4)CC2)cc1 (stereo not shown) [Compound 64, (6-(4-Fluoro-3-methylphenyl)-5,6,7,8-tetrahydroimidazo[1,2-a]pyridin-2-yl)(4-(4-methylphenyl)piperazin-1-yl)methanone]
- activation at 10 µM: 46.7%

SMILES: COc1ccc(OC)c(C2CCc3nc(C(=O)N4CC5(C)CC4CC(C)(C)C5)cn3C2)c1 (stereo not shown) [Compound 12, (6-(2,5-Dimethoxyphenyl)-5,6,7,8-tetrahydroimidazo[1,2-a]pyridin-2-yl)(1,3,3-trimethyl-6-azabicyclo[3.2.1]octan-6-yl)methanone]
- activation at 10 µM: 51.8%

SMILES: Cc1cc(C2CCc3nc(C(=O)N4CCC(C(c5ccccc5)c5ccccc5)CC4)cn3C2)ccc1F (stereo not shown) [Compound 67, (4-Benzhydrylpiperidin-1-yl)(6-(4-fluoro-3-methylphenyl)-5,6,7,8-tetrahydroimidazo[1,2-a]pyridin-2-yl)methanone]
- activation at 10 µM: 33.3%

SMILES: O=C(c1cn2c(n1)CCC(c1cc(F)ccc1F)C2)N1CCCC1 (stereo not shown) [Compound 36, (6-(2,5-Difluorophenyl)-5,6,7,8-tetrahydroimidazo[1,2-a]pyridin-2-yl)(pyrrolidin-1-yl)methanone]
- activation at 10 µM: 21.7%

SMILES: Cc1cc(C2CCc3nc(C(=O)N4CCC(Cc5ccccc5)CC4)cn3C2)ccc1F (stereo not shown) [Compound 57, (4-Benzylpiperidin-1-yl)(6-(4-fluoro-3-methylphenyl)-5,6,7,8-tetrahydroimidazo[1,2-a]pyridin-2-yl)methanone]
- EC50: 9.71 µM

SMILES: O=C(c1cn2c(n1)CCC(c1ccc(F)cc1)C2)N1CCN(c2cccc(C(F)(F)F)c2)CC1 (stereo not shown) [Compound 47, (6-(4-Fluorophenyl)-5,6,7,8-tetrahydroimidazo[1,2-a]pyridin-2-yl)(4-(3-(trifluoromethyl)phenyl)piperazin-1-yl)methanone]
- activation at 10 µM: 63.5%

SMILES: COc1c(C)cc(C2CCc3nc(C(=O)NCc4ccc(F)cc4)cn3C2)cc1C (stereo not shown) [Compound 49, N-(4-Fluorobenzyl)-6-(4-methoxy-3,5-dimethylphenyl)-5,6,7,8-tetrahydroimidazo-[1,2-a]pyridine-2-carboxamide]
- activation at 10 µM: 15.1%

SMILES: O=C(NC1CC1)c1cn2c(n1)CCC(c1ccc(Oc3ccccc3)cc1)C2 (stereo not shown) [Compound 26, N-Cyclopropyl-6-(4-phenoxyphenyl)-5,6,7,8-tetrahydroimidazo[1,2-a]pyridine-2-carboxamide]
- activation at 10 µM: 17.4%

SMILES: O=C(NCc1ccccc1)c1cn2c(n1)CCC(c1cc(C(F)(F)F)cc(C(F)(F)F)c1)C2 (stereo not shown) [Compound 43, N-Benzyl-6-(3,5-bis(trifluoromethyl)phenyl)-5,6,7,8-tetrahydroimidazo[1,2-a]pyridine-2-carboxamide]
- activation at 10 µM: 16.3%

SMILES: O=C(c1cn2c(n1)CCC(c1ccc(F)cc1)C2)N1CCC(Cc2ccccc2)CC1 (stereo not shown) [Compound 41, (4-Benzylpiperidin-1-yl)(6-(4-fluorophenyl)-5,6,7,8-tetrahydroimidazo[1,2-a]pyridin-2-yl)methanone]
- activation at 10 µM: 29.4%

SMILES: COc1c(C)cc(C2CCc3nc(C(=O)NCc4ccccc4)cn3C2)cc1C (stereo not shown) [Compound 5, N-Benzyl-6-(4-methoxy-3,5-dimethylphenyl)-5,6,7,8-tetrahydroimidazo[1,2-a]pyridine-2-carboxamide]
- activation at 10 µM: 15.5%

SMILES: CCCCNC(=O)c1cn2c(n1)CCC(c1ccc(Oc3ccccc3)cc1)C2 (stereo not shown) [Compound 19, N-Butyl-6-(4-phenoxyphenyl)-5,6,7,8-tetrahydroimidazo[1,2-a]pyridine-2-carboxamide]
- EC50: 6.21 µM

SMILES: O=C(c1cn2c(n1)CCC(c1ccccc1)C2)N1CCN(c2cccc(C(F)(F)F)c2)CC1 (stereo not shown) [Compound 53, (6-Phenyl-5,6,7,8-tetrahydroimidazo[1,2-a]pyridin-2-yl)(4-(3-(trifluoromethyl)phenyl)piperazin-1-yl)methanone]
- EC50: 8.34 µM

SMILES: Cc1cc(C2CCc3nc(C(=O)NC(C)CCc4ccccc4)cn3C2)ccc1F (stereo not shown) [Compound 72, 6-(4-Fluoro-3-methylphenyl)-N-(4-phenylbutan-2-yl)-5,6,7,8-tetrahydroimidazo[1,2-a]pyridine-2-carboxamide]
- activation at 10 µM: 103%

SMILES: O=C(c1cn2c(n1)CCC(c1cccc(F)c1)C2)N1CCC(Cc2ccccc2)CC1 (stereo not shown) [Compound 61, (4-Benzylpiperidin-1-yl)(6-(3-fluorophenyl)-5,6,7,8-tetrahydroimidazo[1,2-a]pyridin-2-yl)methanone]
- activation at 10 µM: 82.2%

SMILES: Cc1cccc(C2CCc3nc(C(=O)N4CCC(Cc5ccccc5)CC4)cn3C2)c1 (stereo not shown) [Compound 70, (4-Benzylpiperidin-1-yl)(6-m-tolyl-5,6,7,8-tetrahydroimidazo[1,2-a]pyridin-2-yl)methanone]
- activation at 10 µM: 123%

SMILES: COc1c(C)cc(C2CCc3nc(C(=O)N4CC5(C)CC4CC(C)(C)C5)cn3C2)cc1C (stereo not shown) [Compound 56, (6-(4-Methoxy-3,5-dimethylphenyl)-5,6,7,8-tetrahydroimidazo[1,2-a]pyridin-2-yl)(1,3,3-trimethyl-6-azabicyclo[3.2.1]octan-6-yl)methanone]
- EC50: 11.3 µM
